Assay results taken from US4864023A, “Pyrido(3,2,1-IJ)-1,3,4-benzoxadiazine derivatives” (priority 1988, dated 1989).
Values after ≈ are worked out from the molar mass of the structure shown. Read-outs that look alike come from different tables or passages of the source.

Assays:
[1] = tested on: Bifidobacterium adolescentis ATCC 15703; test: in vitro antibacterial activity, standard agar dilution method; type: cell-based; conditions: ATCC15703, anaerobic, read-out: minimum inhibitory concentration (MIC)
[2] = tested on: Bacteroides fragilis NR 2584; test: as above; type: cell-based; conditions: NR2584, anaerobic, read-out: minimum inhibitory concentration (MIC)
[3] = tested on: Bacteroides fragilis ATCC 23745; test: as above; type: cell-based; conditions: ATCC23745, anaerobic, read-out: minimum inhibitory concentration (MIC)
[4] = tested on: Klebsiella pneumoniae FDA PCI 602; test: as above; type: cell-based; conditions: FDAPCI602, aerobic, read-out: minimum inhibitory concentration (MIC)
[5] = tested on: Bacteroides thetaiotaomicron NR 2588; test: as above; type: cell-based; conditions: NR2588, anaerobic, read-out: minimum inhibitory concentration (MIC)
[6] = tested on: Bacteroides distasonis NR 2578; test: as above; type: cell-based; conditions: Parabacteroides distasonis, NR2578, anaerobic, read-out: minimum inhibitory concentration (MIC)
[7] = tested on: Staphylococcus aureus NR 2855; test: as above; type: cell-based
[8] = tested on: Proteus vulgaris OX19 ATCC 6898; test: as above; type: cell-based; conditions: ATCC6898, aerobic, read-out: minimum inhibitory concentration (MIC)
[9] = tested on: Staphylococcus aureus Smith; test: as above; type: cell-based; conditions: Staphylococcus aureus Smith; aerobic; agar dilution; read-out: minimum inhibitory concentration (MIC)
[10] = tested on: Staphylococcus epidermidis IFO 12993; test: as above; type: cell-based; conditions: IFO12993, aerobic, read-out: minimum inhibitory concentration (MIC)
[11] = tested on: Propionibacterium acnes ATCC 11828; test: as above; type: cell-based; conditions: Cutibacterium acnes, ATCC11828, anaerobic, read-out: minimum inhibitory concentration (MIC)
[12] = tested on: Enterococcus faecalis NR 2943; test: as above; type: cell-based; conditions: NR2943, aerobic, read-out: minimum inhibitory concentration (MIC)
[13] = acute toxicity by oral administration; conditions: mouse, in vivo, po
Source text: The acute toxicity of these compounds was examined by oral administration in ICR mice.

[14] = tested on: Bacteroides fragilis NR 2579; test: in vitro antibacterial activity, standard agar dilution method; type: cell-based; conditions: NR2579, anaerobic, read-out: minimum inhibitory concentration (MIC)
[15] = tested on: Clostridium botulinum NR 26ll; test: microbe, parasite or virus in culture; type: cell-based; conditions: NR26LL, read-out: minimum inhibitory concentration (MIC)
[16] = tested on: Pseudomonas stutzeri IFO 12695; test: in vitro antibacterial activity, standard agar dilution method; type: cell-based; conditions: Stutzerimonas stutzeri, IFO12695, aerobic, read-out: minimum inhibitory concentration (MIC)
[17] = tested on: Bacteroides fragilis NR 2583; test: as above; type: cell-based; conditions: NR2583, anaerobic, read-out: minimum inhibitory concentration (MIC)
[18] = tested on: Bordetella bronchiseptica ATCC 4617; test: as above; type: cell-based; conditions: ATCC4617, aerobic, read-out: minimum inhibitory concentration (MIC)
[19] = tested on: Citrobacter freundii IFO 12681; test: as above; type: cell-based; conditions: IFO12681, aerobic, read-out: minimum inhibitory concentration (MIC)
[20] = tested on: Enterobacter aerogenes NR 2945; test: as above; type: cell-based; conditions: Klebsiella aerogenes, NR2945, aerobic, read-out: minimum inhibitory concentration (MIC)
[21] = tested on: Peptococcus variabilis ATCC 14955; test: as above; type: cell-based; conditions: anaerobic, read-out: minimum inhibitory concentration (MIC)
Escherichia coli NR 2630 = test: as above; type: cell-based; conditions: NR2630; Escherichia coli NR 2630; aerobic; agar dilution; read-out: minimum inhibitory concentration (MIC)
[22] = tested on: Pseudomonas aeruginosa A3; test: as above; type: cell-based; conditions: aerobic, read-out: minimum inhibitory concentration (MIC)
[23] = tested on: Streptococcus pneumoniae 6-001; test: in vivo therapeutic efficacy, lethal systemic infection in mice; conditions: Streptococcus pneumoniae, 6001, po, 120 h; S. pneumoniae 6-001 i.p. infection, ICR mice, p.o. at time of injection, mortality 5 days; read-out: 50% effective dose (ED50)
Experimental: (§1) The in vivo antibacterial activities of pyrido[3,2,1-ij]-1,3,4-benzoxadiazine derivatives prepared by Example 5, Example 30, Example 65 and Example 66 as mentioned below were tested against lethal infection of Escherichia coli ML4707, Pseudomonas aeruginosa 4au542 and Streptococcus pneumoniae 6-001. ICR mice weighing about 20 g were infected by intraperitoneal injection of a corresponding bacterial suspension. The test compounds were administered orally or subcutaneously at the time of injection. […] The respective 50% effective dose (ED50, mg/kg) which protects 50% of the animals from death caused by infection, is shown in Table 3.

Escherichia coli ML4707 = test: as above; conditions: Escherichia coli, 120 h, E. coli ML4707 i.p. infection, ICR mice, mortality 5 days, read-out: 50% effective dose (ED50)
Experimental: as §1

[24] = tested on: Pseudomonas aeruginosa 4au542; test: as above; conditions: po, 120 h, P. aeruginosa 4au542 i.p. infection, ICR mice, p.o. at time of injection, mortality 5 days, read-out: 50% effective dose (ED50)
Experimental: as §1

[25] = tested on: Staphylococcus aureus FDA 209P JC-1; test: in vitro antibacterial activity, standard agar dilution method; type: cell-based; conditions: FDA209P, read-out: minimum inhibitory concentration (MIC)
[26] = tested on: Proteus rettgeri ATCC 14505; test: as above; type: cell-based; conditions: Providencia rettgeri, ATCC14505, aerobic, read-out: minimum inhibitory concentration (MIC)
[27] = tested on: Enterobacter cloacae NR 2946; test: as above; type: cell-based; conditions: NR2946, aerobic, read-out: minimum inhibitory concentration (MIC)
[28] = ML4707, po, p.o. at time of injection
[29] = ML4707, sc, s.c. at time of injection

| SMILES | MIC [1] [µg/mL] | MIC [2] [µg/mL] | MIC [3] [µg/mL] | MIC [4] [µg/mL] | MIC [5] [µg/mL] | MIC [6] [µg/mL] | MIC [8] [µg/mL] | MIC [9] [µg/mL] | MIC [10] [µg/mL] | MIC [11] [µg/mL] | MIC [12] [µg/mL] | LD50 [13] [mg/kg] | MIC [14] [µg/mL] | MIC [15] [µg/mL] | MIC [16] [µg/mL] | MIC [17] [µg/mL] | MIC [18] [µg/mL] | MIC [19] [µg/mL] | MIC [20] [µg/mL] | MIC [21] [µg/mL] | other results |
| --- | --- | --- | --- | --- | --- | --- | --- | --- | --- | --- | --- | --- | --- | --- | --- | --- | --- | --- | --- | --- | --- |
| CN1CCN(c2c(F)cc3c(=O)c(C(=O)O)cn4c3c2OCN4C)CC1 [Example 5, 9-fluoro-3-methyl-10-(4-methyl-1-piperazinyl)-7-oxo-2,3-dihydro-7H-pyrido[3,2,1-ij]-1,3,4-benzoxadiazine-6-carboxylic acid] | 0.39 (≈ 1.08 µM) | 0.78 (≈ 2.15 µM) | 0.78 (≈ 2.15 µM) | 0.1 (≈ 0.276 µM) | 1.56 (≈ 4.31 µM) | 0.78 (≈ 2.15 µM) | 0.013 (≈ 0.0359 µM) | 0.2 (≈ 0.552 µM) | 0.39 (≈ 1.08 µM) | 0.78 (≈ 2.15 µM) | 3.13 (≈ 8.64 µM) | > 2000 | 3.13 (≈ 8.64 µM) | 0.1 (≈ 0.276 µM) | 0.025 (≈ 0.069 µM) | 0.39 (≈ 1.08 µM) | 0.2 (≈ 0.552 µM) | 0.013 (≈ 0.0359 µM) | 0.013 (≈ 0.0359 µM) | 0.78 (≈ 2.15 µM) | MIC ([7]; NR2855, Staphylococcus aureus NR 2855, aerobic, agar dilution, read-out: minimum inhibitory concentration (MIC)): 0.2 µg/mL (≈ 0.552 µM); MIC (Escherichia coli NR 2630): 0.013 µg/mL (≈ 0.0359 µM); MIC [22]: 0.2 µg/mL (≈ 0.552 µM); ED50 [23]: 10.3 mg/kg; ED50 (Escherichia coli ML4707; [28]): 0.11 mg/kg; ED50 (Escherichia coli ML4707; [29]): 0.06 mg/kg; ED50 [24]: 13.4 mg/kg; MIC ([25]; Staphylococcus aureus): 0.39 µg/mL (≈ 1.08 µM); MIC [26]: 0.2 µg/mL (≈ 0.552 µM); MIC [27]: 0.025 µg/mL (≈ 0.069 µM) |
| CN1COc2c(N3CCC(N)C3)c(F)cc3c(=O)c(C(=O)O)cn1c23 (stereo not drawn) [Example 30, 10-(3-amino-1-pyrrolidinyl)-9-fluoro-3-methyl-7-oxo-2,3-dihydro-7H-pyrido[3,2,1-ij]-1,3,4-benzoxadiazine-6-carboxylic acid] | 0.1 (≈ 0.287 µM) | 0.78 (≈ 2.24 µM) | 0.2 (≈ 0.574 µM) | 0.1 (≈ 0.287 µM) | 0.78 (≈ 2.24 µM) | 0.78 (≈ 2.24 µM) | 0.0065 (≈ 0.0187 µM) | 0.05 (≈ 0.144 µM) | 0.2 (≈ 0.574 µM) | 0.78 (≈ 2.24 µM) | 3.13 (≈ 8.99 µM) | > 2000 | 1.56 (≈ 4.48 µM) | 0.013 (≈ 0.0373 µM) | 0.0033 (≈ 0.00947 µM) | 0.1 (≈ 0.287 µM) | 1.56 (≈ 4.48 µM) | 0.013 (≈ 0.0373 µM) | 0.0033 (≈ 0.00947 µM) | 0.2 (≈ 0.574 µM) | MIC ([7]; Staphylococcus aureus, NR2855, read-out: minimum inhibitory concentration (MIC)): 0.39 µg/mL (≈ 1.12 µM); MIC (Escherichia coli NR 2630): 0.0065 µg/mL (≈ 0.0187 µM); MIC [22]: 0.05 µg/mL (≈ 0.144 µM); ED50 [23]: 65.9 mg/kg; ED50 (Escherichia coli ML4707; [28]): 0.62 mg/kg; ED50 (Escherichia coli ML4707; [29]): 0.1 mg/kg; ED50 [24]: 57 mg/kg; MIC ([25]; Staphylococcus aureus FDA 209P JC-1, aerobic, agar dilution): 0.05 µg/mL (≈ 0.144 µM); MIC [26]: 0.1 µg/mL (≈ 0.287 µM); MIC [27]: 0.013 µg/mL (≈ 0.0373 µM) |
